Calls of active or inactive are those of the source.
Legend:
[1] = biological target: T1, Taste receptor type 2 member 38 (Homo sapiens) (UniProt P59533); assay: Activity at human TAS2R38 expressed in HEK-293T-Galpha16-gustducin44 cells assessed as threshold concentration of compound at which point receptor detects compounds by measuring calcium response by FLIPR assay; type: functional, cell-based
T1 sequence (whole entry): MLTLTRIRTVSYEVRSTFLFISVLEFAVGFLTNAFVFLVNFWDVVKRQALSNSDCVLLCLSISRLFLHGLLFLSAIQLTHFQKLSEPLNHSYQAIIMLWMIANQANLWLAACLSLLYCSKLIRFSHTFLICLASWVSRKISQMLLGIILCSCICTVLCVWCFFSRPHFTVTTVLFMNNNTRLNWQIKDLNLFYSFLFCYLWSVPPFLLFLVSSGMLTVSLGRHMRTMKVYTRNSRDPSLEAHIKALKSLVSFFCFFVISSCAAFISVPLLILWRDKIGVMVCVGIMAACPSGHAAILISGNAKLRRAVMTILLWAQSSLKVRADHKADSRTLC

[2] = biological target: T2, Taste receptor type 2 member 38 (Homo sapiens, UniProt P59533); assay: Activity at human TAS2R38 expressed in HEK-293T-Galpha16-gustducin44 cells assessed as effect on calcium response by FLIPR assay; type: functional, cell-based
T2 sequence (P59533 whole entry): T1 sequence (whole entry)

[3] = biological target: T3, Taste receptor type 2 member 16 (Homo sapiens) (UniProt Q9NYV7); assay: Activity at human TAS2R16 expressed in HEK293/15 cells assessed as threshold concentration of compound at which point receptor detects compounds by measuring calcium response by FLIPR assay; type: functional, cell-based
T3 sequence (whole entry): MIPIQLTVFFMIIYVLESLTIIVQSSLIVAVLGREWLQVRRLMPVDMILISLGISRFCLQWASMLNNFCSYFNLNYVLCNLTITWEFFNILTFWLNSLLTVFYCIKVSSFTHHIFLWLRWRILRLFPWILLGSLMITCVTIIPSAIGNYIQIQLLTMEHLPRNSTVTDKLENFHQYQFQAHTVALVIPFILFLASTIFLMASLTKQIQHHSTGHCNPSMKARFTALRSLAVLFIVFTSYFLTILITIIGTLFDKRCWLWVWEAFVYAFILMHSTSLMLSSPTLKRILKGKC

[4] = tested on: Homo sapiens; assay: In-vivo activity at TAS2R16 in trained human taste panelists assessed as threshold concentration of compound at which point panelists detects bitterness intensity of compound in sensory panel room at 22 to 25 degC by triangle test with tap water as solvent; type: functional
[5] = biological target: T4, Taste receptor type 2 member 16 (Homo sapiens, UniProt Q9NYV7); assay: Activity at human TAS2R16 expressed in HEK293/15 cells assessed as effect on calcium response by FLIPR assay; type: functional, cell-based
T4 sequence (Q9NYV7 whole entry): T3 sequence (whole entry)

[6] = tested on: Homo sapiens; assay: In-vivo activity at TAS2R16 in trained human taste panelists assessed as detection of bitterness intensity of compound in sensory panel room at 22 to 25 degC by triangle test with tap water as solvent; type: functional, organism-based
[7] = biological target: T3, Taste receptor type 2 member 16 (Homo sapiens); assay: Activity at human TAS2R16 expressed in HEK-293T-Galpha16-gustducin44 cells assessed as threshold concentration of compound at which point receptor detects compounds by measuring calcium response by FLIPR assay; type: functional, cell-based
[8] = biological target: T4, Taste receptor type 2 member 16; assay: Activity at human TAS2R16 expressed in HEK-293T-Galpha16-gustducin44 cells assessed as effect on calcium response by FLIPR assay; type: functional, cell-based
[9] = biological target: T5, Taste receptor type 2 member 10 (Homo sapiens) (UniProt Q9NYW0); assay: Activity at human TAS2R10 expressed in HEK293/15 cells assessed as compound concentration showing threshold of activation on calcium response by FLIPR assay; type: functional, cell-based
T5 sequence (whole entry): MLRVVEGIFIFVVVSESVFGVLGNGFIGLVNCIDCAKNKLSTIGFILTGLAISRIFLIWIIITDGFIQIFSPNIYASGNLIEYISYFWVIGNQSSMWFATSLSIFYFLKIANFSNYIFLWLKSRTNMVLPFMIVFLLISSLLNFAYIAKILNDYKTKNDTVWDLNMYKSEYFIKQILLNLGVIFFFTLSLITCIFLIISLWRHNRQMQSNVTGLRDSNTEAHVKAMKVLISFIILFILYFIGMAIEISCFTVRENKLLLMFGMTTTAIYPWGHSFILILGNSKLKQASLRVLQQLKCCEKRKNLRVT

[10] = biological target: T5, Taste receptor type 2 member 10 (Homo sapiens); assay: Activity at human TAS2R10 expressed in HEK-293T-Galpha16-gustducin44 cells assessed as threshold concentration of compound at which point receptor detects compounds by measuring calcium response by FLIPR assay; type: functional, cell-based
[11] = biological target: T6, Taste receptor type 2 member 10 (Homo sapiens, UniProt Q9NYW0); assay: Activity at human TAS2R10 expressed in HEK-293T-Galpha16-gustducin44 cells assessed as effect on calcium response by FLIPR assay; type: functional, cell-based
T6 sequence (Q9NYW0 whole entry): T5 sequence (whole entry)

[12] = biological target: T7, Taste receptor type 2 member 14 (Homo sapiens) (UniProt Q9NYV8); assay: Activity at human TAS2R14 expressed in HEK-293T-Galpha16-gustducin44 cells assessed as concentration of compound which reacts with receptor by measuring calcium response by FLIPR assay; type: functional, cell-based
T7 sequence (whole entry): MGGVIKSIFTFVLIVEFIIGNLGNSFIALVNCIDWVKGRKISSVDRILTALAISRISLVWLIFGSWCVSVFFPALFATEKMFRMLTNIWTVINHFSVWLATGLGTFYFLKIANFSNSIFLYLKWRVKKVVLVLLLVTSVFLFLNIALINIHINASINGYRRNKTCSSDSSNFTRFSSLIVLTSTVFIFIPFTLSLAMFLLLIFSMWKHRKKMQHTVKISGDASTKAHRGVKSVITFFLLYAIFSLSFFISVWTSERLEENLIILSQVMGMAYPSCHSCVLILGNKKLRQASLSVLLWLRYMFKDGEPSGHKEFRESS

[13] = biological target: T1, Taste receptor type 2 member 38 (Homo sapiens); assay: Activity at human TAS2R38 expressed in HEK-293T-Galpha16-gustducin44 cells assessed as concentration of compound which reacts with receptor by measuring calcium response by FLIPR assay; type: functional, cell-based
[14] = biological target: T3, Taste receptor type 2 member 16 (Homo sapiens); assay: Activity at human TAS2R16 expressed in HEK293/15 cells assessed as threshold concentration of compound at which point receptor detects compounds by measuring calcium response up to 100 mM by FLIPR assay; type: functional, cell-based
[15] = biological target: T3, Taste receptor type 2 member 16 (Homo sapiens); assay: Activity at human TAS2R16 expressed in HEK293/15 cells assessed as effect on calcium response up to 100 mM by FLIPR assay; type: functional, cell-based

## CN(C)C=S
[1]
  Activity: 10 µM
[2]
  EC50: 55 µM

## OC[C@H]1O[C@@H](Oc2ccccc2)[C@H](O)[C@@H](O)[C@@H]1O
[3]
  Activity: 0.07 mM
[4]
  Activity: 0.1 mM
[5]
  EC50: 1100 µM
[6]
  EC50: 700 µM
[7]
  Activity: 0.07 mM
[8]
  EC50: 1100 µM

## CC(=O)NC(N)=S
[1]
  Activity: 2 µM
[2]
  EC50: 15 µM

## COc1cc2c(cc1OC)[C@@]13CCN4CC5=CCO[C@H]6CC(=O)N2[C@H]1[C@H]6[C@H]5C[C@H]43 [BRUCINE]
[9]
  Activity: Active
[10]
  Activity: 0.01 mM
[11]
  EC50: 60 µM

## N[C@@H](Cc1ccc(O)cc1)C(=O)O
[12]
  Activity: 1 mM

## O=[N+]([O-])c1ccc(O[C@@H]2O[C@H](CO)[C@@H](O)[C@H](O)[C@H]2O)cc1
[7]
  Activity: 1 to 3 mM

## O=C1CC(=O)NC(=S)N1
[13]
  Activity: 10 mM

## CC(=N)S
[1]
  Activity: 100 µM

## CNC(N)=S
[1]
  Activity: 100 µM
[2]
  EC50: 600 to 800 µM

## NC(=S)Nc1ccccc1 [PHENYLTHIOUREA]
[1]
  Activity: 0.3 µM
[2]
  EC50: 2 µM

## CC(=S)Nc1ccccc1
[1]
  Activity: 3 µM
[2]
  EC50: 18 µM

## OC[C@H]1O[C@@H](Oc2ccccc2)[C@H](O)[C@@H](O)[C@H]1O
[4]
  Activity: 40 mM
[14]
  Activity: inactive
[15]
  Activity: inactive

## OC[C@H]1O[C@@H](Oc2ccc(O)cc2)[C@H](O)[C@@H](O)[C@@H]1O [ARBUTIN]
[3]
  Activity: 0.5 mM
[4]
  Activity: 0.9 mM
[5]
  EC50: 5800 µM
[6]
  EC50: 5400 µM
[7]
  Activity: 0.5 mM
[8]
  EC50: 5800 µM

## O=c1ccc2cc(O[C@@H]3O[C@H](CO)[C@@H](O)[C@H](O)[C@H]3O)c(O)cc2o1 [ESCULIN]
[3]
  Activity: 4 mM
[4]
  Activity: 4 mM
[7]
  Activity: 4 mM

## OC[C@H]1O[C@@H](Oc2ccc3ccccc3c2)[C@H](O)[C@@H](O)[C@@H]1O
[3]
  Activity: 0.4 mM
[4]
  Activity: 0.2 mM
[5]
  EC50: 1000 µM
[6]
  EC50: 1400 µM
[7]
  Activity: 0.4 mM
[8]
  EC50: 1000 µM

## O=[N+]([O-])c1ccccc1O[C@@H]1O[C@H](CO)[C@@H](O)[C@H](O)[C@H]1O
[3]
  Activity: 1.5 mM
[7]
  Activity: 0.3 to 1 mM

## CO[C@@H]1O[C@H](CO)[C@@H](O)[C@H](O)[C@H]1O
[3]
  Activity: 15 mM
[4]
  Activity: 32 mM
[7]
  Activity: 15 mM
[8]
  EC50: 32000 µM

## CC[N+](CC)(CC(=O)Nc1c(C)cccc1C)Cc1ccccc1 [DENATONIUM BENZOATE]
[10]
  Activity: 0.003 mM
[11]
  EC50: 70 µM

## O=[N+]([O-])c1ccc(S[C@@H]2O[C@H](CO)[C@@H](O)[C@H](O)[C@H]2O)cc1
[7]
  Activity: 1 to 5 mM

## N#C[C@H](O[C@@H]1O[C@H](CO[C@@H]2O[C@H](CO)[C@@H](O)[C@H](O)[C@H]2O)[C@@H](O)[C@H](O)[C@H]1O)c1ccccc1 [AMYGDALIN]
[3]
  Activity: 2.3 mM
[5]
  EC50: 20000 µM
[7]
  Activity: 2.3 mM
[8]
  EC50: 20000 µM

## O=C1C[C@@H]2OCC=C3CN4CC[C@]56c7ccccc7N1[C@H]5[C@H]2[C@H]3C[C@H]46 [STRYCHNINE]
[9]
  Activity: 0.1 µM
[10]
  Activity: 0.003 mM
[11]
  EC50: 40 µM

## CCCc1cc(=O)[nH]c(=S)[nH]1 [PROPYLTHIOURACIL]
[1]
  Activity: 0.3 µM
[2]
  EC50: 2 µM

## O=[N+]([O-])c1ccc(O[C@@H]2O[C@H](CO)[C@@H](O)[C@H](O)[C@@H]2O)cc1
[7]
  Activity: 1 to 3 mM

## OCc1ccccc1O[C@@H]1O[C@H](CO)[C@@H](O)[C@H](O)[C@H]1O [SALICIN]
[3]
  Activity: 0.07 mM
[4]
  Activity: 0.2 mM
[5]
  EC50: 1400 µM
[6]
  EC50: 1100 µM
[7]
  Activity: 0.07 mM
[8]
  EC50: 1400 µM

## O=c1cc[nH]c(=S)[nH]1 [THIOURACIL]
[1]
  Activity: 300 µM
[2]
  EC50: 2000 µM

## S=C1NCCN1
[1]
  Activity: 10 µM

## OC[C@H]1O[C@H](Oc2ccccc2)[C@H](O)[C@@H](O)[C@@H]1O
[4]
  Activity: 9 mM
[6]
  EC50: 50000 µM
[14]
  Activity: inactive
[15]
  Activity: inactive

## CCNC(N)=S
[2]
  EC50: 260 µM

## O=Cc1ccccc1O[C@@H]1O[C@H](CO)[C@@H](O)[C@H](O)[C@H]1O [HELICIN]
[3]
  Activity: 0.3 mM
[4]
  Activity: 0.4 mM
[5]
  EC50: 2300 µM
[6]
  EC50: 2200 µM
[7]
  Activity: 0.3 mM
[8]
  EC50: 2300 µM

## O=c1cc(-c2ccccc2)[nH]c(=S)[nH]1
[1]
  Activity: 0.15 µM
[2]
  EC50: 0.5 µM

## CN(C)C(=S)N(C)C
[1]
  Activity: 10 to 30 µM
[2]
  EC50: 100 µM

## CC/N=C(/N)S
[1]
  Activity: 30 µM

Reference: ChEMBL document CHEMBL4419120, “Bitter taste receptors” (2015)
